The assay has as its system M. tuberculosis H37Rv growth inhibition, 7H9 media. Kind of assay: M. tuberculosis growth inhibition, HTS (AID 449762).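 For all read-outs here: bacterial growth assessed after seven days of incubation.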 The settings on record: for IC90: measured here: IC90 growth inhibition.

Inconclusive results are not listed.

Consider `CCOc1ccc(-c2csc(/C(C#N)=C\c3ccc(O)c([N+](=O)[O-])c3)n2)cc1`, for which the IC50 was 11.1 µM and the IC90 was over 100 µM. Take `O=C(/C=C/c1ccc(OCCCF)cc1)Nc1ccnc(-c2ccncc2)n1`: the IC50 is 37.5 µM and the IC90 was found to be 68.8 µM. Regarding `COCC(=O)O[C@]1(CCN(C)CCCc2nc3ccccc3[nH]2)CCc2cc(F)ccc2[C@@H]1C(C)C`, the IC50 was 32.2 µM and the IC90 was found to be 42.6 µM. For `C=CCN1CC[C@]23c4c5ccc(O)c4O[C@H]2/C(=N/NC(=O)c2ccccc2)CC[C@@]3(O)[C@H]1C5`, in that order: 79.5 µM and over 100 µM. Take `COC(=O)c1cccc(C#CC(NP(=O)(c2ccccc2)c2ccccc2)c2ccccc2)c1` (stereo not drawn): the IC90 was over 100 µM. As for `CC1(C)Cc2c(C#N)c(N3CCN(C(=O)c4ccccc4)CC3)nc(Cc3ccccc3)c2CO1`, the IC50 is 28.8 µM and the IC90 was over 100 µM. Consider `CN(C)c1nc(NCc2ccccc2)nc(N/N=C/c2ccc3c(c2)OCO3)n1`, for which the IC50 was 42.7 µM and the IC90 is over 100 µM. For `C=CCOc1ccc(C2=NOC(C(=O)Nc3ccc4c(c3)OCCO4)C2)cc1` (stereo not drawn), in that order: 12.8 µM and 23.1 µM.

Turning to `Cc1ccc(C(=O)/C=C/C(=O)c2ccc(C)cc2)cc1`, the IC50 is 2.05 µM and the IC90 was determined as 7.63 µM. On to `O=C(CSC1=NC(=O)C(c2ccccc2)C(=O)N1)Nc1ccccc1Cl` (stereo not drawn), for which the IC50 was 1.86 µM and the IC90 was 6.58 µM.

Take `O=S(=O)(Nc1ccc2[nH]ncc2c1)c1ccccc1Cl`: the IC50 was 11.6 µM and the IC90 came out at 19.5 µM.

With `Nc1ccc(-c2nc3ccc(-c4nc5ccccc5o4)cc3[nH]2)cc1`, the IC50 is 31.4 µM and the concentration for an effect of 90% (IC90) amounted to 41.6 µM. The like results for `CC(C)CCC[C@@H](C)[C@H]1CC[C@H]2[C@@H]3C(=O)C=C4C[C@@H](O)CC[C@]4(C)[C@H]3CC[C@]12C` were, in that order, 43.3 µM and 47.8 µM. Turning to `CCc1ccc(N=CC23c4ccccc4C(c4ccccc42)C2C(=O)N(c4ccc(OC)cc4)C(=O)C23)cc1` (stereo not drawn), the IC50 was 53.1 µM and the IC90 is over 100 µM.

As to `CCOc1ccc(N(C(=O)/C=C/C(=O)Nc2cc(C)on2)C(C(=O)NC2CCCC2)c2ccccc2C)cc1` (stereo not drawn), the IC50 was 65.9 µM and the IC90 was over 100 µM. In the case of `c1ccc(-c2nnc(-c3ccccn3)nn2)nc1`, the IC50 was 3.61 µM and the IC90 stood at 6.27 µM.

On to `CN(C)[C@@H]1C(=O)C(C(N)=O)=C(O)[C@@]2(O)C(=O)C3=C(O)c4c(O)cccc4[C@@](C)(O)C3C[C@@H]12` (stereo partly drawn), for which the IC50 was 5.95 µM and the IC90 amounted to 15 µM. For `COc1cccc(-c2cc3nc4c(c(NCC(C)(C)CN(C)C)n3n2)CCCC4)c1`, in that order: 22 µM and 28.2 µM. As to `C#CCCc1cscc1/C=[N+](\[O-])c1ccc(C(=O)OCC)cc1`, the IC50 is 99.1 µM and the IC90 was over 100 µM. Molecule `CC(C)(C)c1nc2sc3c(c2c(=O)o1)CCCC3` returned an IC90 of over 100 µM.

As to `COc1ccc(-c2cc3nc(CCl)[nH]c(=O)c3s2)cc1`, the IC50 is 0.88 µM and the IC90 stood at 14.5 µM. `OC(COC(c1ccc(Cl)cc1)c1ccc(Cl)cc1)CN1CCc2ccccc2C1` (stereo not drawn): the IC50 is 18.8 µM and the IC90 was 24.7 µM. On to `CCCN(CCC)CCNC(=O)c1cc2c(-c3ccc(Cl)cc3)nn(C)c2s1`, for which the IC50 is 19.5 µM and the IC90 came to 27.7 µM. The like results for `Oc1ccccc1NCC(O)Cn1ccc2ccccc21` (stereo not drawn) were, in that order, 5.37 µM and 8.32 µM. For `CC1=NN(c2ccc(C)c(C)c2)C(=O)/C1=C\C=C\c1ccc([N+](=O)[O-])o1`, in that order: 3.14 µM and 15.5 µM. Turning to `O=[N+]([O-])/C=C/c1cn(Cc2ccccc2)c2ccccc12`, the IC50 is 82.9 µM and the IC90 is over 100 µM. For `Cc1cc(CC(C)C)n(-c2nc3ccccc3c(=O)n2OCC(N)=O)n1`, in that order: 3.88 µM and 12.7 µM.

For the molecule `COc1cccc(-n2nnc3c(=O)n(CC(=O)N4CCC(Cc5ccccc5)CC4)cnc32)c1`, the IC50 is 23.2 µM and the IC90 came out at 36.7 µM. On to `CCOC(=O)c1c(-c2ccc(OC)cc2)csc1NC(=O)CNCc1ccco1`, for which the IC50 was 10.9 µM and the IC90 came out at 16.4 µM. For `O=C(NC1CCN(C(=O)N2c3ccccc3Sc3ccccc32)CC1)c1ccccc1F`, in that order: 86.1 µM and over 100 µM.

Consider `CN=c1scc(-c2ccccc2Br)n1/N=C/c1ccc[nH]1`, for which the IC50 is 50 µM and the IC90 was found to be 54.2 µM. The like results for `CCOC(=O)CSc1nnc(SCCN2C(=O)c3ccccc3C2=O)s1` were, in that order, 4.3 µM and 30 µM.

`C[C@@H]1CN([C@H](C)CO)C(=O)c2cc(NC(=O)Nc3ccc(C(F)(F)F)cc3)ccc2O[C@H]1CN(C)S(=O)(=O)c1cccs1`: the IC50 is 22.6 µM and the IC90 was determined as 25.9 µM. The like results for `CCC1(c2ccccc2)ON(c2c(Br)cccc2Br)C1=O` (stereo not drawn) were, in that order, 16.9 µM and 50.4 µM. On to `Oc1ccccc1-c1nnc(COc2ccccc2)o1`, for which the IC50 was 7.64 µM and the IC90 is 34.7 µM. In the case of `Cc1c([N+](=O)[O-])cnc(Sc2ccccc2)c1[N+](=O)[O-]`, the IC50 is 2.01 µM and the IC90 was found to be 7.59 µM. For `CC(C)(C)c1ccc(C(O)CCCN2CCC(C(O)(c3ccccc3)c3ccccc3)CC2)cc1` (stereo not drawn), in that order: 12.2 µM and 17.4 µM. Turning to `Oc1cccc(-c2nc3ccc4ccccc4c3c3c2CCC3)c1`, the IC50 is 7.31 µM and the IC90 worked out at 26.8 µM. For `CCN(CC)S(=O)(=O)c1ccc2oc(SCC(=O)Nc3cc(C)on3)nc2c1`, in that order: 1.39 µM and 5.88 µM. Regarding `CCN1C(N(C)CCc2c[nH]c3ccccc23)=N[C@@H](c2cccc(C(F)(F)F)c2)C(C(=O)OC)=C1C`, the IC50 was 21.5 µM and the IC90 was found to be 23.7 µM.

As for `O=C(C=C=Nc1ccccc1)C(=O)N=C=Cc1ccccc1`, the IC50 is 5.31 µM and the IC90 worked out at 13.1 µM. The like results for `CC(C)(C)c1ccc(OCCC(=O)OCC(=O)NC(=O)NC2CCCC2)cc1` were, in that order, 5.45 µM and 8.58 µM. With `CCOC(=O)C1(CCOc2ccccc2)CCN(Cc2cccc(-n3cccn3)c2)CC1`, the IC50 was 25.4 µM and the IC90 was 28.8 µM. For `Cc1nnc(-c2ccccc2)c(=O)n1/N=C/c1c(O)ccc2ccccc12`, in that order: 24.1 µM and 27.3 µM. Turning to `COc1ccc(-c2c(-c3cc(OC)cc(OC)c3)n(C)c3ccc(-c4ccn[nH]4)cc23)cc1`, the concentration for an effect of 90% (IC90) was over 100 µM. `CC1=NNC(=O)/C1=C\c1cn(-c2ccccc2)nc1-c1ccc(Cl)cc1`: the IC50 is 28.7 µM and the IC90 was 37.2 µM. For `CCOc1cc(C(=O)OCc2ccc(C(=O)OC)o2)cc(Br)c1OC`, in that order: 61.7 µM and over 100 µM. `Cc1cccc(C(=O)NNC(=S)NC(=O)c2ccccc2)c1`: the IC50 was 0.59 µM and the IC90 turned out to be 2.82 µM.

With `C=CCNc1oc(-c2ccc(-c3ccccc3)cc2)nc1C#N`, the IC50 was 12.2 µM and the IC90 came to 13.7 µM. The like results for `O=C(NCC(c1cccs1)N1CCOCC1)c1cc([N+](=O)[O-])cc([N+](=O)[O-])c1` (stereo not drawn) were, in that order, 0.72 µM and 0.81 µM. Consider `O=C1/C(=C/Nc2ccc3c(c2)OCO3)CCc2ccccc21`, for which the IC50 is 72.8 µM and the IC90 was over 100 µM. In the case of `Cc1ccc2nc(/N=C(\N)NC(=O)NC3CCCCC3)nc(C)c2c1`, the IC50 is 2.22 µM and the IC90 was determined as 8.85 µM. The like results for `CCCCn1nc(C(=O)Nc2ccccc2N2CCCC2)c2ccccc2c1=O` were, in that order, 11.8 µM and over 100 µM. For `COc1cccc(COC(=O)c2ccc3c(=O)n4c(nc3c2)CCC4)c1OC`, in that order: 21.1 µM and 50.6 µM.

With `c1ccc2nc(-c3ccc(-n4ccnc4)cc3)ccc2c1`, the IC50 was 23.5 µM and the concentration for an effect of 90% (IC90) worked out at 25.9 µM. For `CCOC(=O)c1ccccc1NC(=O)COc1coc(CN2CCc3ccccc32)cc1=O`, the IC50 was 17.9 µM and the IC90 was 38.2 µM.

In the case of `Brc1cccc2sc(N3CCN(c4ccccc4)CC3)nc12`, the IC50 is 44.5 µM and the IC90 is over 100 µM. For `CC(C(Sc1ccccc1N)c1ccccc1)[N+](=O)[O-]` (stereo not drawn), in that order: 19.4 µM and over 100 µM.

On to `O=C(CSc1nc2ccccc2c(=O)[nH]1)NCc1ccc(Cl)cc1`, for which the IC50 is 1.09 µM and the IC90 was 2.7 µM. For `S=C1SCN(Cc2ccco2)CN1Cc1ccco1`, in that order: 32.7 µM and 52.3 µM. With `O=C1c2ccccc2C(=O)N1Nc1ccccc1`, the IC90 was over 100 µM. On to `O=C1Nc2ccccc2/C1=N\N=C\C1=C(N2CCOCC2)C(=C\c2ccccc2)/CC1`, for which the 50% inhibitory concentration (IC50) is 33.4 µM and the IC90 was determined as 59.8 µM.

Take `Cc1nc2ccc(OC(=O)c3ccccc3)cc2s1`: the IC50 was 66 µM and the IC90 is 86 µM. For `Cc1ccc(S(=O)(=O)n2ccc3c(OCCOCCNCc4ccc(F)cc4)cccc32)cc1`, the IC50 was 22.1 µM and the IC90 was found to be 25.5 µM.

For `O=[N+]([O-])c1ccc(C2CC(c3ccccc3)=Nc3ccccc3S2)cc1` (stereo not drawn), the IC50 is 5.11 µM and the IC90 was 6.66 µM. For `O=C(NCCC1=CCCCC1)NC12CC3CC(CC(C3)C1)C2`, the IC50 is under 0.2 µM and the IC90 worked out at 0.34 µM. For `Cc1ccc(S(=O)(=O)Nc2cccc3ncccc23)s1`, in that order: under 0.2 µM and 3.93 µM. The like results for `N#CCCN(C(=O)COC(=O)CCc1c[nH]c2ccccc12)c1ccc(F)cc1` were, in that order, 30.7 µM and 70.8 µM. The like results for `Cc1cccc(N2CCN(CCCNC(=O)c3ccc(NC(=O)C4=CSCCO4)cc3)CC2C)c1` (stereo not drawn) were, in that order, 19.7 µM and 29.2 µM. Regarding `CCN(CC)S(=O)(=O)c1ccc2[nH]cc(C(=O)NCCC3=CCCCC3)c(=O)c2c1`, the IC50 is 40.7 µM and the IC90 is over 100 µM. Turning to `CCOC(=O)N1CCN(C(=O)CSc2nnc(-c3ccc(Cl)s3)o2)CC1`, the IC50 was 13.1 µM and the IC90 came to 34.1 µM.

The term IC50 denotes the concentration at which inhibition is half-maximal. One may read the IC90 as the concentration at which the effect reaches the 90% level. A low value points to greater potency.

(Values after PubChem BioAssay AID449762 (Southern Research Specialized Biocontainment Screening …, 2010).)
